In the CheMixHub viscosity set:
Where “and” joins values, the source holds several entries; their conditions need not be identical. Equal values may be shown once. ± gives the uncertainty stated by the source.

Experiment: xn = mol fraction of the nth substance listed

c1ccc2ccccc2c1 + CC(=O)O
viscosity
Details	303.15 K	308.15 K	313.15 K	318.15 K	323.15 K
101 kPa, x1 = 0.06774	1.187 ± 0.03 mPa·s	1.093 ± 0.028 mPa·s	1.01 ± 0.025 mPa·s	0.9386 ± 0.024 mPa·s	0.8751 ± 0.022 mPa·s
101 kPa, x1 = 0.116	–	1.108 ± 0.028 mPa·s	1.024 ± 0.026 mPa·s	0.951 ± 0.024 mPa·s	0.8838 ± 0.022 mPa·s
101.33 kPa, x1 = 0.06774	1.187 ± 0.0083 mPa·s	1.093 ± 0.0077 mPa·s	1.01 ± 0.0071 mPa·s and 1.01 ± 0.027 mPa·s	0.9386 ± 0.0066 mPa·s	0.8751 ± 0.0061 mPa·s
101.33 kPa, x1 = 0.08923	–	–	1.023 ± 0.027 mPa·s	–	–
101.33 kPa, x1 = 0.116	–	–	1.024 ± 0.027 mPa·s	–	–
101.33 kPa, x1 = 0.12	–	1.108 ± 0.0078 mPa·s	1.024 ± 0.0072 mPa·s	0.951 ± 0.0067 mPa·s	0.8838 ± 0.0062 mPa·s
101.33 kPa, x1 = 0.1443	–	–	1.049 ± 0.028 mPa·s	–	–

C1CCOC1 + C1CCCCC1
Details	viscosity [mPa·s]
298.15 K, 101.3 kPa, x2 = 0.1002	0.4906 ± 0.0047
298.15 K, 101.3 kPa, x2 = 0.1973	0.5151 ± 0.0048
298.15 K, 101.3 kPa, x2 = 0.2946	0.5406 ± 0.005
298.15 K, 101.3 kPa, x2 = 0.3963	0.5689 ± 0.0052
298.15 K, 101.3 kPa, x2 = 0.5012	0.6048 ± 0.0055
298.15 K, 101.3 kPa, x2 = 0.5961	0.6424 ± 0.0057
298.15 K, 101.3 kPa, x2 = 0.7009	0.6906 ± 0.0061
298.15 K, 101.3 kPa, x2 = 0.906	0.8152 ± 0.0071
303.15 K, 101.33 kPa, x1 = 0.0954	0.751 ± 0.007
303.15 K, 101.33 kPa, x1 = 0.1961	0.691 ± 0.006
303.15 K, 101.33 kPa, x1 = 0.3067	0.639 ± 0.006
303.15 K, 101.33 kPa, x1 = 0.4023	0.6 ± 0.005
303.15 K, 101.33 kPa, x1 = 0.5059	0.562 ± 0.005
303.15 K, 101.33 kPa, x1 = 0.6054	0.533 ± 0.005
303.15 K, 101.33 kPa, x1 = 0.704	0.505 ± 0.005
303.15 K, 101.33 kPa, x1 = 0.8065	0.478 ± 0.004
303.15 K, 101.33 kPa, x1 = 0.8987	0.457 ± 0.004
313.15 K, 101.3 kPa, x2 = 0.1002	0.4186 ± 0.0042
313.15 K, 101.3 kPa, x2 = 0.1973	0.4356 ± 0.0043
313.15 K, 101.3 kPa, x2 = 0.2946	0.4542 ± 0.0044
313.15 K, 101.3 kPa, x2 = 0.3963	0.4773 ± 0.0046
313.15 K, 101.3 kPa, x2 = 0.5012	0.5037 ± 0.0048
313.15 K, 101.3 kPa, x2 = 0.5961	0.5305 ± 0.005
313.15 K, 101.3 kPa, x2 = 0.7009	0.5648 ± 0.0052
313.15 K, 101.3 kPa, x2 = 0.906	0.6505 ± 0.006

CC(C)=O + CO
Details	viscosity [mPa·s]
293.15 K, 101 kPa, x1 = 0.025	0.563 ± 0.011
293.15 K, 101 kPa, x1 = 0.098	0.507 ± 0.01
293.15 K, 101 kPa, x1 = 0.244	0.435 ± 0.009
293.15 K, 101 kPa, x1 = 0.385	0.389 ± 0.008
293.15 K, 101 kPa, x1 = 0.487	0.371 ± 0.008
293.15 K, 101 kPa, x1 = 0.703	0.342 ± 0.008
293.15 K, 101 kPa, x1 = 0.865	0.333 ± 0.007
298.15 K, 101.33 kPa, x1 = 0.059	0.4921 ± 0.012
298.15 K, 101.33 kPa, x1 = 0.1261	0.455 ± 0.011
298.15 K, 101.33 kPa, x1 = 0.1889	0.4225 ± 0.011
298.15 K, 101.33 kPa, x1 = 0.2564	0.3965 ± 0.0099
298.15 K, 101.33 kPa, x1 = 0.3691	0.367 ± 0.0092
298.15 K, 101.33 kPa, x1 = 0.4581	0.3458 ± 0.0087
298.15 K, 101.33 kPa, x1 = 0.558	0.3292 ± 0.0082
298.15 K, 101.33 kPa, x2 = 0.7146	0.3932 ± 0.0099
303.15 K, 101 kPa, x1 = 0.025	0.496 ± 0.01
303.15 K, 101 kPa, x1 = 0.098	0.449 ± 0.009
303.15 K, 101 kPa, x1 = 0.244	0.389 ± 0.008
303.15 K, 101 kPa, x1 = 0.385	0.352 ± 0.008
303.15 K, 101 kPa, x1 = 0.703	0.314 ± 0.007
303.15 K, 101 kPa, x1 = 0.865	0.308 ± 0.007
313.15 K, 101 kPa, x1 = 0.025	0.435 ± 0.009
313.15 K, 101 kPa, x1 = 0.244	0.349 ± 0.008
313.15 K, 101 kPa, x1 = 0.385	0.322 ± 0.007
313.15 K, 101 kPa, x1 = 0.487	0.311 ± 0.007
313.15 K, 101 kPa, x1 = 0.703	0.291 ± 0.007
313.15 K, 101 kPa, x1 = 0.865	0.287 ± 0.007
318.15 K, 101 kPa, x1 = 0.025	0.411 ± 0.009
318.15 K, 101 kPa, x1 = 0.098	0.378 ± 0.008
318.15 K, 101 kPa, x1 = 0.244	0.335 ± 0.008
318.15 K, 101 kPa, x1 = 0.385	0.311 ± 0.007
318.15 K, 101 kPa, x1 = 0.487	0.3 ± 0.007
318.15 K, 101 kPa, x1 = 0.703	0.282 ± 0.007
318.15 K, 101 kPa, x1 = 0.865	0.277 ± 0.007
323.15 K, 101 kPa, x1 = 0.025	0.386 ± 0.008
323.15 K, 101 kPa, x1 = 0.098	0.362 ± 0.008
323.15 K, 101 kPa, x1 = 0.244	0.32 ± 0.007

C1CCOC1 + CN(C)C=O
viscosity [mPa·s], 101 kPa
Details	x2 = 0.0988	x2 = 0.1978	x2 = 0.2971	x2 = 0.3967	x2 = 0.4966	x2 = 0.5967	x2 = 0.6971	x2 = 0.7978	x2 = 0.8988
298.15 K	0.47 ± 0.02	0.482 ± 0.02	0.496 ± 0.021	0.518 ± 0.021	0.547 ± 0.022	0.586 ± 0.024	0.63 ± 0.025	0.679 ± 0.027	0.737 ± 0.029
308.15 K	0.434 ± 0.019	0.444 ± 0.019	0.458 ± 0.02	0.476 ± 0.02	0.502 ± 0.021	0.533 ± 0.022	0.57 ± 0.023	0.614 ± 0.025	0.659 ± 0.026
318.15 K	0.41 ± 0.018	0.431 ± 0.019	0.454 ± 0.019	0.478 ± 0.02	0.502 ± 0.021	0.523 ± 0.022	0.545 ± 0.022	0.568 ± 0.023	0.592 ± 0.024

O=C([O-])[O-].[K+].[K+] + O
viscosity [mPa·s], 101 kPa
Details	303.15 K	308.15 K	313.15 K
x1 = 0.002	0.839 ± 0.007	0.769 ± 0.007	0.703 ± 0.006
x1 = 0.005	0.889 ± 0.008	0.814 ± 0.007	0.745 ± 0.007
x1 = 0.009	0.944 ± 0.008	0.864 ± 0.008	0.793 ± 0.007
